pIC50: −log10 of the molar value. Values joined by “and” are separate entries in the source; they are usually repeats but may differ in a detail not shown here. Identical values can stand only once. Like-named read-outs stand apart in the source and are kept apart here.
What was measured:
TK-10 = details: for TGI: TK-10, 48 h
MALME-3M = assay: NCI-60 SRB screen; details: 48 h
[1] = tested on: Non-small cell lung cancer; details: Non-small cell lung cancer subpanel
SF-295 = assay: NCI-60 SRB screen; details: SF-295, 48 h; for CC50: read-out: LC50, SF-295, 48 h
Leukemia [2] = assay: cells; details: Homo sapiens; for GI50: read-out: MG_MID GI50; for CC50: read-out: MG_MID LC50
IGROV1 = assay: NCI-60 SRB screen; details: for CC50: read-out: LC50, IGROV1, 48 h
SR = assay: cells; details: Homo sapiens, 48 h
A498 = assay: cells; details: Homo sapiens, A498, 48 h
UACC-62 = assay: NCI-60 SRB screen; details: for growth GP: UACC-62, 10 μM, 48 h
SK-MEL-28 = details: SK-MEL-28, 48 h
CNS cancer = CNS cancer subpanel
MOLT-4 = details: MOLT-4, 48 h
Breast cancer = assay: cells; details: Homo sapiens; for GI50: read-out: MG_MID GI50; for CC50: read-out: MG_MID LC50
NCI-H266 = assay: NCI-60 SRB screen; details: for GI50 / TGI: NCI-H266, 48 h; for CC50: read-out: LC50, NCI-H266, 48 h
Leukemia [3] = details: Leukemia subpanel
Colon cancer = assay: NCI-60 SRB screen, subpanel; details: for MG_MID TGI: Colon cancer subpanel
DU-145 = assay: cells; details: Homo sapiens, DU-145, 48 h; for CC50: read-out: LC50, DU-145, 48 h
BT-549 = assay: cells; details: Homo sapiens, BT-549, 48 h
PC-3 = details: PC-3, 48 h
UO-31 = assay: cells; details: Homo sapiens, UO-31, 48 h
K-562 = assay: cells; details: Homo sapiens, K562, 48 h; for GI50: K-562, 48 h; for CC50: read-out: LC50
CCRF-CEM = details: 48 h
MCF-7 = assay: [3H]-thymidine incorporation assay; type: cell-based; details: Homo sapiens, MCF7; MCF-7, 24 h of treatment
Protocol: (§1) Another method of assessing the cytotoxic effects of tested compounds, [^3H]-thymidine incorporation assay, was applied. This method provided the capability to analyze the antiproliferative activity of novel structures on MCF-7 and MDA-MB-231 through their ability to incorporate thymidine into the cells. The acquired results further confirmed the potent activity of the 14b compound as the most prominent structure among the novel compounds (Table 2). The test was carried out in triplicate at concentrations of 5, 15, and 30 μM for the MDA-MB-231 cell line and 1, 5, and 10 μM for the MCF-7 cell line.
(§2) Following the selection of cell lines for further study, the effects of all compounds on cell proliferation were evaluated on MCF-7 and MDA-MB-231 cell lines. Cells were seeded in 24-well plates and cultured as described above. Cells were treated with the compounds at concentrations 1, 5, and 10 μM, and 5, 15, and 30 μM for MCF-7 and MDA-MB-231 cell lines, respectively, for 24 h. Subsequently, 0.5 μCi [^3H]-thymidine was added for 4 h at 37 °C. Then, plates with cells were placed on the ice, the liquid was aspirated, and cells were washed twice with 1mL of 0.05 M Tris-HCl buffer comprising 0.11 M NaCl and precipitated by adding 1 mL per well of 5% trichloroacetic. After precipitation, the cells were dissolved with 1 mL of 0.1 M NaOH with 1% SDS (Sigma-Aldrich, St. Louis, MO, USA) at room temperature (RT). The cell lysates were transferred into scintillation vials containing 2 mL of scintillation fluid (Ultima Gold™ XR, PerkinElmer, MA, USA), and cell-associated radioactivity was measured using a Scintillation Counter 1900 TR, TRI-CARB (Packard, Perkin Elmer, Inc., San Jose, CA, USA). The [^3H]-thymidine uptake was expressed as a percentage of the control value.

MDA-MB-231 = assay: [3H]-thymidine incorporation assay; type: cell-based; details: Homo sapiens; MDA-MB-231, 24 h of treatment
Protocol: as §1, §2

[4] = tested on: Non-small cell lung cancer; assay: cells; details: Homo sapiens; for GI50: read-out: MG_MID GI50; for CC50: read-out: MG_MID LC50
SF-539 = details: for growth GP: SF-539, 10 μM, 48 h
HOP-92 = assay: NCI-60 SRB screen; details: HOP-92, 48 h
HCT-116 = assay: cells; details: Homo sapiens, HCT-116, 48 h
[5] = Homo sapiens, read-out: LC50, HOP-92, 48 h

O=C(O)CCN1C(=O)/C(=C/C=C/c2ccc([N+](=O)[O-])o2)SC1=S [12b, 3-((Z)-5-((E)-3-(5-Nitrofuran-2-yl)allylidene)-4-oxo-2-thioxothiazolidin-3-yl)propanoic acid]
TGI (TK-10): 3810 nM | GI50 (MALME-3M; Homo sapiens, Malme-3M): 500 nM | CC50 (MALME-3M; Homo sapiens, Malme-3M, read-out: LC50, MALME-3M, 48 h): 4250 nM | TGI (MALME-3M; MALME-3M): 1660 nM | MG_MID TGI [1]: 7750 nM | GI50 (SF-295; Homo sapiens): 2170 nM | CC50 (SF-295; Homo sapiens): 16300 nM | TGI (SF-295): 5210 nM | GI50 (Leukemia [2]): 660 nM | CC50 (Leukemia [2]): > 100000 nM | GI50 (IGROV1; Homo sapiens, IGROV-1, 48 h, IGROV1, 48 h): 1430 nM | CC50 (IGROV1; Homo sapiens, IGROV-1, 48 h): 5700 nM | TGI (IGROV1; IGROV1, 48 h): 2860 nM | GI50 (SR): 300 nM | GI50 (A498): 14300 nM | GI50 (UACC-62; Homo sapiens, UACC-62, 48 h): 650 nM | CC50 (UACC-62; Homo sapiens, UACC-62, 48 h, read-out: LC50, UACC-62, 48 h): 4160 nM | growth GP (UACC-62): -97.43% | TGI (UACC-62; UACC-62, 48 h): 2000 nM | TGI (SK-MEL-28): 3050 nM | MG_MID TGI (CNS cancer): 4090 nM | TGI (MOLT-4): 2560 nM | GI50 (Breast cancer): 1090 nM | CC50 (Breast cancer): 37400 nM | GI50 (NCI-H266; Homo sapiens, 48 h): 2830 nM | CC50 (NCI-H266; Homo sapiens, 48 h): 79700 nM | TGI (NCI-H266): 12500 nM | MG_MID TGI (Leukemia [3]): 2520 nM | MG_MID TGI (Colon cancer): 2930 nM | GI50 (DU-145): 2610 nM | CC50 (DU-145): 33300 nM | GI50 (BT-549): 1350 nM | CC50 (BT-549; read-out: LC50, BT-549, 48 h): 6130 nM | TGI (PC-3): 10600 nM | GI50 (UO-31): 1050 nM | CC50 (UO-31; read-out: LC50, UO-31, 48 h): 4840 nM | GI50 (K-562): 340 nM | CC50 (K-562): > 100000 nM | TGI (CCRF-CEM): 870 nM | pIC50 (MCF-7): 5.18 | pIC50 (MDA-MB-231): 5.74 | GI50 [4]: 2590 nM | CC50 [4]: 25900 nM | growth GP (SF-539): -96.95% | TGI (SF-539; SF-539, 48 h): 3650 nM | TGI (HOP-92): 3500 nM | GI50 (HOP-92; Homo sapiens): 1830 nM | CC50 (HOP-92; [5]): 6720 nM

CC(C(=O)O)N1C(=O)/C(=C/C=C/c2ccc([N+](=O)[O-])o2)SC1=S (stereo not drawn) [2b, 2-((Z)-5-((E)-3-(5-Nitrofuran-2-yl)allylidene)-4-oxo-2-thioxothiazolidin-3-yl)propanoic acid]
pIC50 (MCF-7): 5.18 | pIC50 (MDA-MB-231): 5.25

O=C(O)CCCN1C(=O)/C(=C/C=C/c2ccc([N+](=O)[O-])o2)SC1=S [13b, 4-((Z)-5-((E)-3-(5-Nitrofuran-2-yl)allylidene)-4-oxo-2-thioxothiazolidin-3-yl)butanoic acid]
growth GP (TK-10; TK-10, 10 μM, 48 h): -97.38% | TGI (TK-10): 3180 nM and 2030 nM | CC50 (TK-10; human, 48 h): 4770 nM | GI50 (MALME-3M; Homo sapiens, Malme-3M): 240 nM | GI50 (MALME-3M; MALME-3M): 150 nM | TGI (MALME-3M; MALME-3M): 600 nM and 350 nM | MG_MID TGI [1]: 4480 nM | CC50 (SF-295; Homo sapiens): 6310 nM | TGI (SF-295): 3240 nM and 2070 nM | GI50 (Leukemia [2]): 9340 nM | CC50 (Leukemia [2]): 87000 nM | CC50 (IGROV1; Homo sapiens, IGROV-1, 48 h): 5140 nM | CC50 (SR; read-out: LC50): > 100000 nM | GI50 (A498): 4130 nM | GI50 (UACC-62; Homo sapiens, UACC-62, 48 h): 310 nM | growth GP (UACC-62): -95.10% | GI50 (UACC-62; UACC-62, 48 h): 180 nM | MG_MID TGI (CNS cancer): 2090 nM | GI50 (MOLT-4): 290 nM | TGI (MOLT-4): 1860 nM and 1160 nM | GI50 (Breast cancer): 530 nM | CC50 (Breast cancer): 36000 nM | GI50 (NCI-H266; Homo sapiens, 48 h): 2790 nM | CC50 (NCI-H266; Homo sapiens, 48 h): 76100 nM | GI50 (NCI-H266): 1650 nM | TGI (NCI-H266): 11900 nM and 9780 nM | MG_MID TGI (Leukemia [3]): 28300 nM | MG_MID TGI (Colon cancer): 1350 nM | GI50 (Colon cancer; Homo sapiens, read-out: MG_MID GI50): 520 nM | CC50 (Colon cancer; Homo sapiens, read-out: MG_MID LC50): 11900 nM | GI50 (DU-145): 1090 nM | CC50 (DU-145): 4920 nM | GI50 (PC-3): 400 nM | TGI (PC-3): 3100 nM and 2020 nM | GI50 (K-562): 160 nM | CC50 (K-562): > 100000 nM | GI50 (CCRF-CEM): 120 nM | TGI (CCRF-CEM): 820 nM and 780 nM | pIC50 (MCF-7): 5.40 | pIC50 (MDA-MB-231): 5.75 | GI50 (HCT-116): 310 nM | GI50 [4]: 1210 nM | CC50 [4]: 24600 nM | growth GP (SF-539): -98.91% | CC50 (HOP-92; [5]): 6330 nM | CC50 (HOP-92; read-out: LC50): 4240 nM
